Reference: US12018059B2, “Human amylin analog polypeptides and methods of use” (Intarcia Therapeutics, Inc., priority 2018, dated 2024)
≈ marks a conversion by molar mass, not a printed value. Starred links: 1 amine or outer side, 2 acyl side, 3 side chain; linkers in the order of their positions; H or OH if unused. Positions of bridges follow the written chain, without caps; N, C: chain ends. Non-standard residues stand in square brackets, D forms with d. Residues, ends and D or L forms follow the SMILES beside them. Groups on a side chain read outwards from the residue. *: point of attachment. γGlu = O=C(O)[C@H](CCC(=O)[*:2])N[*:1]; Palmitoyl = CCCCCCCCCCCCCCCC(=O)*

Key:
[1] = Acute food intake inhibition after SC bolus injection (BioDAQ); conditions: Long Evans rats on 45% high fat diet
[2] = 27-day HbA1c change in combination with exenatide; conditions: dose 30 mcg/kg + Exenatide 10 mcg/kg, ZDF rats
in vivo = assay: in vivo; design: species or system Sprague-Dawley rats; conditions: male, Sprague-Dawley, rat, iv, 0.033 mg/kg
Outline: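 Peptide plasma levels measured by UPLC-MS/MS (C18, product-ion monitoring) after protein precipitation or WCX SPE, calibrated in K2EDTA/protease-inhibitor rat plasma. Dosing in non-fasted male Sprague-Dawley rats (n=3): 0.033 mg/kg over 1 h by IV or SC infusion, or 0.3 mg/kg SC bolus; sampling up to 48 h.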

[3] = Solubility of amylin analog polypeptides (visual inspection, room temperature); assay type: physicochemical; conditions: Solubility
Description: The analog polypeptides described herein were tested for solubility in saline 20% DMSO in water (i.e., bioassay buffer) or in aqueous (DI water) at room temperature. Samples were visually inspected for clarity of the sample, any appearance of turbidity or haziness.

[4] = 13-day dose-response body weight loss, continuous SC infusion by osmotic mini-pump; conditions: 13 days, LE DIO rats
[5] = 27-day weight loss in combination with exenatide; conditions: LE DIO rats

**Q.** With `CCCCCCCCCCCCCCCC(=O)N[C@@H](CCC(=O)N[C@@H](CCC(=O)NCCCC[C@@H](NC(=O)[C@H](CCC(=O)O)NC(=O)[C@H](CC(N)=O)NC(=O)[C@H](C)NC(=O)[C@H](CC(C)C)NC(=O)[C@H](CCCNC(=N)N)NC(=O)[C@H](CCC(N)=O)NC(=O)[C@@H](NC(=O)[C@H](C)NC(=O)[C@@H]1CSSC[C@H](NC(=O)[C@@H](N)CO)C(=O)N[C@@H](CC(N)=O)C(=O)N[C@@H]([C@@H](C)O)C(=O)N[C@@H](CO)C(=O)N[C@@H]([C@@H](C)O)C(=O)N1)[C@@H](C)O)C(=O)N[C@@H](Cc1c[nH]cn1)C(=O)N[C@@H](CCCCN)C(=O)N[C@@H](CO)C(=O)N[C@@H](CO)C(=O)N[C@@H](CC(N)=O)C(=O)N[C@@H](CC(N)=O)C(=O)N[C@@H](Cc1ccccc1)C(=O)NCC(=O)N1CCC[C@H]1C(=O)N[C@H](C(=O)N[C@@H](CC(C)C)C(=O)N1CCC[C@H]1C(=O)N1CCC[C@H]1C(=O)N[C@H](C(=O)N[C@@H](CCCCN)C(=O)N[C@H](C(=O)NCC(=O)N[C@@H](CO)C(=O)N[C@@H](CCC(=O)O)C(=O)N[C@H](C(=O)N[C@@H](Cc1ccc(O)cc1)C(N)=O)[C@@H](C)O)C(C)C)[C@@H](C)O)[C@@H](C)CC)C(=O)O)C(=O)O` [Compound A27] (H-SCNTSTCATQRLANE[dK]([γGlu-γGlu-Palmitoyl])HKSSNNFGPILPPTKVGSETY-NH2; disulfide 2-7; N-terminus assumed) as the molecule, how does the “Acute Food Intake % Inhibition vs vehicle” value ([1]; 0-24 hr after acute SC dosing) read?
**A.** 86%

**Q.** What about the “Acute Food Intake % Inhibition vs vehicle” value ([1]; 25-48 hr after acute SC dosing) of the same molecule?
**A.** 57%

**Q.** What about the “Acute Food Intake % Inhibition vs vehicle” value ([1]; 49-72 hr after acute SC dosing) of the same molecule?
**A.** 13%

**Q.** And the “ZDF Combination + Exenatide 27 d HbA1c (%), ΔΔ % HbA1c” value [2]?
**A.** 3.3%

**Q.** And the Vd (in vivo)?
**A.** 0.174 L/kg

**Q.** What about the clearance (in vivo) of the same molecule?
**A.** 0.478 mL/min/kg

**Q.** And the half-life (in vivo)?
**A.** 310 min

**Q.** What about the solubility [3] of the same molecule?
**A.** 80.6 mg/mL (≈ 18 mM)

**Q.** What about the “DIO Dose Response 13 d weight loss, ED50” value [4] of the same molecule?
**A.** 36 µg/kg

**Q.** And the “DIO Dose Response 13 d weight loss, ΔΔ % weight loss” value ([4]; from baseline and vehicle control)?
**A.** 5%

**Q.** What about the “DIO Combination + Exenatide 27 d weight loss, ΔΔ % weight loss” value ([5]; dose 3 mcg/kg + Exenatide 10 mcg/kg) of the same molecule?
**A.** 9%

**Q.** And the “DIO Combination + Exenatide 27 d weight loss, ΔΔ % weight loss” value ([5]; dose 10 mcg/kg + Exenatide 10 mcg/kg)?
**A.** 12%

**Q.** And the “DIO Combination + Exenatide 27 d weight loss, ΔΔ % weight loss” value ([5]; dose 30 mcg/kg + Exenatide 10 mcg/kg)?
**A.** 17%
